# Experimental data as given in patent US20220380338A1, “CYCLOALKYL 3-OXOPIPERAZINE CARBOXAMIDES AND CYCLOHETEROALKYL 3-OXOPIPERAZINE CARBOXAMIDES AS NAV1.8 INHIBITORS” (Merck Sharp & Dohme LLC, priority 2021, published 2022).
# Molecular target: T1, human NaV1.8 (Homo sapiens, UniProt Q9Y5Y9)
# T1 construct: expressed in transfected cells
# Test: Nav1.8 Qube® Assay (automated 384-well patch-clamp, inhibition of sodium current)
# Type: cell-based
# Details: human NaV1.8 channels stably expressed in HEK 293 cells, room temperature
# Procedure: Compounds were tested on human NaV1.8 and NaV1.5 channels stably expressed in human embryo kidney (HEK) 293 cells. Sodium current measurements on Qube® were conducted as follows: automated 384-well patch-clamp assays on the Qube® platform (Sophion Biosciences) were used to measure the inhibition of sodium flow through human NaV1.8 and NaV1.5 channels. Whole-cell voltage-clamp recordings were performed in QChips® (Sophion Biosciences) at room temperature. NaV1.8 current measurements on Qube® were obtained as follows: NaV1.8 currents were elicited with a 10 second 1 Hertz (Hz) pulse train from a holding potential of −90 millivolts (mV), delivered to the cells once per minute in the control condition (DMSO only) and after compound addition. The 1 hertz pulse train stimulation consisted of ten test pulses to 10 millivolt (mV) for 20 milliseconds (ms), each of which was followed by a 980 millisecond repolarization to −67 millivolts. At the end of the 10 second pulse train stimulation, a 5 second hyperpolarization step to −100 millivolt (mV) was used to recover NaV1.8 from fast inactivation. The peak currents elicited by the 1st and 10th test pulses were used to determine IC50 values for resting inhibition and inactivated state inhibition. NaV1.5 current measurements on Qube® were obtained as follows: NaV1.5 currents were elicited with a 20 second 3 Hertz pulse train in the control condition (DMSO only) and after compound addition. The pulse train consisted of sixty 20 millisecond test pulses to 0 millivolt from a holding potential of −80 millivolt (mV). The average peak currents elicited by the last 3 test pulses were used to determine IC50 values for NaV1.5 inhibition.
# The following buffers were used for the Qube® recordings: External buffer for NaV1.8 Qube® recording: 150 NaCl, 2 CaCl2, 5 KCl, 1 Mg Cl2, 10 HEPES, 12 Dextrose; External buffer for Qube® NaV1.5 recording: 120 N-Methyl-D-Glucamine, 40 NaCl, 1 KCl, 2.7 CaCl2, 5 HEPES, 0.5 MgCl2; and Internal buffer for Qube® recording: 120 CsF, 30 CsCl, 10 EGTA, 5 HEPES, 5 NaF, 2 MgCl2.
# For all Qube® experiments offline analysis was used to determine percent inhibition as a function of drug concentration. IC50 values were determined by fitting to the Hill equation.
# T1 sequence (Q9Y5Y9 whole entry): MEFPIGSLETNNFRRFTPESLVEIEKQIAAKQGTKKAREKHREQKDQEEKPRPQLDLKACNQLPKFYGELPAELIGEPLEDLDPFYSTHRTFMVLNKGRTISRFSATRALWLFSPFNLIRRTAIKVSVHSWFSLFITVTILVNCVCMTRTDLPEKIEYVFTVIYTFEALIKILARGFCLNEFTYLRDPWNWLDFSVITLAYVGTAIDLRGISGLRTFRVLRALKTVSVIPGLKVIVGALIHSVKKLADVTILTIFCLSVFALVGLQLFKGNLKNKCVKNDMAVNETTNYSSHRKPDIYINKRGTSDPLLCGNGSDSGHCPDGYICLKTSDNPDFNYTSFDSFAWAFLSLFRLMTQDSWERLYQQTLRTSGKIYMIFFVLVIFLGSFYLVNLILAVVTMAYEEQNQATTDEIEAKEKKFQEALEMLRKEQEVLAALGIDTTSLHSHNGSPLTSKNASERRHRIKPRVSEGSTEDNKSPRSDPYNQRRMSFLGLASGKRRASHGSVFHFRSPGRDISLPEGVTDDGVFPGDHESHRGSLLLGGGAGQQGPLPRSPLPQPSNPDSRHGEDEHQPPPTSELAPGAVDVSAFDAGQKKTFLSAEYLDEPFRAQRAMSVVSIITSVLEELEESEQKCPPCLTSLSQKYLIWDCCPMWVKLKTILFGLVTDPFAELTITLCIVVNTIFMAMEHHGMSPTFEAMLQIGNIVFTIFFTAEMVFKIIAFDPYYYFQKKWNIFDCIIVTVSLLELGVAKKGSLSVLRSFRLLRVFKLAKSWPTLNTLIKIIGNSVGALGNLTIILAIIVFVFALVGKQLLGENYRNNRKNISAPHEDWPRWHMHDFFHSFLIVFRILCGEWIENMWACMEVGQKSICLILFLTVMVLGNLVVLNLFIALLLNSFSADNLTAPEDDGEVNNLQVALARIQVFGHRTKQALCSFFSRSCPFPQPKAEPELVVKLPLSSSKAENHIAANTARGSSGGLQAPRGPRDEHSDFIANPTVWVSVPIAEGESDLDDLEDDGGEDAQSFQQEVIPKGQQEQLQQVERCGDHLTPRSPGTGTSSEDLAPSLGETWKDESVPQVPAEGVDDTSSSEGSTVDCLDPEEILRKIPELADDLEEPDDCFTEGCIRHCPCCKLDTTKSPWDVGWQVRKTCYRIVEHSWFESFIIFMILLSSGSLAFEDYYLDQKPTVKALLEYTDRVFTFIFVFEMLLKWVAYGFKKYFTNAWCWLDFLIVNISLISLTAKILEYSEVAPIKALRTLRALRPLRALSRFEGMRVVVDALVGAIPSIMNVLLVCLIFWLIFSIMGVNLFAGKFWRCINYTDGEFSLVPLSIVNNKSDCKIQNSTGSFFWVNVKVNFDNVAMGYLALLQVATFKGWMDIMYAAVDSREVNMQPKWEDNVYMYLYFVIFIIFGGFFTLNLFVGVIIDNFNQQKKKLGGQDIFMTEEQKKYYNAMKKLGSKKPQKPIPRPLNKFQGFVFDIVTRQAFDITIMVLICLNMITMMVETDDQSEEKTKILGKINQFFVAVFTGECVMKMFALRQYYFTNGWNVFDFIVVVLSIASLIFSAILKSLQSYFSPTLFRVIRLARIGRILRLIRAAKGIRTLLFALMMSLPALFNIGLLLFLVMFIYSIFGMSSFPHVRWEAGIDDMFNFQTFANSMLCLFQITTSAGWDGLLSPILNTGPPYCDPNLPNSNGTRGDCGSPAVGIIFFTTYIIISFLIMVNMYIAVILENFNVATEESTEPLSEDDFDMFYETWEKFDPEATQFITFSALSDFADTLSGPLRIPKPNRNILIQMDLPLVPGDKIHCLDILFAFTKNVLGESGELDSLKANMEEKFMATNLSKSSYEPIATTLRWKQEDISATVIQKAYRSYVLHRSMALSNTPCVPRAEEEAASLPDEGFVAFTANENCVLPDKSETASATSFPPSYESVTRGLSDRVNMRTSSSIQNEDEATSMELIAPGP
row,Compound,IC50
1,"C[C@@H]1C(=O)NCCN1C(=O)NC(c1ccc(F)c(Cl)c1)C1CC2CCC(C1)C2(F)F (single isomer, unassigned) [Example 3A, (2R)-N-((R or S)-(3-chloro-4-fluoro-phenyl)(8,8-difluoro-bicyclo[3.2.1]octan-3-yl)methyl)-2-methyl-3-oxo-piperazine-1-carboxamide]",14.8 nM
2,"C[C@@H]1C(=O)NCCN1C(=O)NC(c1ccc(F)c(F)c1)[C@H]1CC[C@H](C(F)(F)F)CC1 (single isomer, unassigned) [Example 8B, (2R)-N-((S or R)-(3,4-difluoro-phenyl)(trans-4-(trifluoromethyl)cyclo-hexyl)methyl)-2-methyl-3-oxo-piperazine-1-carboxamide]",13.2 nM
3,"C[C@@H]1C(=O)NCCN1C(=O)NC(c1ccc(OC(F)(F)F)c(F)c1)[C@H]1C[C@H](C(F)(F)F)C1 (single isomer, unassigned) [Example 49B]",84.6 nM
4,"COC1CC(C(NC(=O)N2CCNC(=O)[C@H]2C)c2ccc(F)c(Cl)c2F)C1 (single isomer, unassigned) [Example 40C, (2R)-N-((S or R)-(3-chloro-2,4-difluoro-phenyl)(cis-3-methoxycyclobutyl)-methyl)-2-methyl-3-oxopiperazine-1-carboxamide]",362 nM
5,"O=C1CN(C(=O)NC(c2ccc(Cl)c(C(F)(F)F)n2)C2CCC(C(F)(F)F)CC2)CCN1 (single isomer, unassigned) [Example 45A]",283 nM
6,"C[C@@H]1C(=O)NCCN1C(=O)NC(c1ccc(F)c(Cl)c1F)C1CCC(C(F)(F)F)C1 (single isomer, unassigned) [Example 58B, (2R)—N—((R or S)-(3-chloro-2,4-difluorophenyl)(cis-3-(trifluoromethyl)cyclopentyl)methyl)-2-methyl-3-oxopiperazine-1-carboxamide]",5.65 nM
7,"C[C@@H]1C(=O)NCCN1C(=O)NC(c1ccc(Cl)c(C(F)(F)F)n1)C1CC(C(F)(F)F)C1 (single isomer, unassigned) [Example 47D, (2R)—N—((S or R)-(5-chloro-6-(trifluoromethyl)pyridin-2-yl)(cis-3-(trifluoromethyl)-cyclobutyl)methyl)-2-methyl-3-oxopiperazine-1-carboxamide]",36.6 nM
8,"[2H][C@@]1(CF)C(=O)NCCN1C(=O)N[C@H](c1ccc(F)c(Cl)c1F)[C@H]1C[C@H](C(F)(F)F)C1 [Example 61, (S)—N—((S)-(3-chloro-2,4-difluorophenyl)((trans)-3-(trifluoromethyl)cyclobutyl)methyl)-2-(fluoromethyl)-3-oxopiperazine-2-d-1-carboxamide]",0.7 nM
9,"O=C1CN(C(=O)NC(c2ccc(F)c(Cl)c2)C23CCC(C(F)(F)F)(CC2)CC3)CCN1 (single isomer, unassigned) [Example 12A, N-((R or S)-(3-chloro-4-fluoro-phenyl)(4-(trifluoro-methyl)bicyclo[2.2.2]octan-1-yl)methyl)-3-oxopiperazine-1-carboxamide]",343 nM
10,"O=C1CN(C(=O)N[C@H](c2ccc(F)c(Cl)c2F)[C@H]2C[C@H](C(F)(F)F)C2)CCN1 [Example 26, N—((S)-(3-chloro-2,4-difluorophenyl)(trans-3-(trifluoromethyl)cyclobutyl)methyl)-3-oxopiperazine-1-carboxamide]",6.82 nM
11,"C[C@@H]1C(=O)NCCN1C(=O)NC(c1ccc(F)c(Cl)c1F)C1CCC(F)(F)C1 (single isomer, unassigned) [Example 42A, (2R)-N-((R or S)-(3-choro-2,4-difluoro-phenyl)((R or S)-3,3-difluorocyclopentyl)-methyl)-2-methyl-3-oxopiperazine-1-carboxamide]",321 nM
12,"C[C@@H]1C(=O)NCCN1C(=O)NC(c1ccc(F)c(Cl)c1)C1CCC2(CC1)CC2(F)F (single isomer, unassigned) [Example 19D]",10 nM
13,"C[C@@H]1C(=O)NCCN1C(=O)NC(c1ccc(F)c(Cl)c1F)[C@H]1C[C@@H]1C(F)(F)F (single isomer, unassigned) [Example 57C]",566 nM
14,"C[C@@H]1C(=O)NCCN1C(=O)NC(c1ccc(F)c(Cl)c1F)C1CC(C)(C)C1 (single isomer, unassigned) [Example 31A, (2R)-N-((R or S)-(3-chloro-2,4-difluoro-phenyl)(3,3-dimethyl-cyclobutyl)methyl)-2-methyl-3-oxopiperazine-1-carboxamide]",0.74 nM
15,"C[C@@H]1C(=O)NCCN1C(=O)NC(c1ccc(F)c(Cl)c1)C1CC2CCC(C1)C2(F)F (single isomer, unassigned) [Example 3B, (2R)-N-((S or R)-(3-chloro-4-fluoro-phenyl)(8,8-difluoro-bicyclo[3.2.1]octan-3-yl)methyl)-2-methyl-3-oxo-piperazine-1-carboxamide]",148 nM
16,"C[C@@H]1C(=O)NCCN1C(=O)NC(c1ccc(F)c(Cl)c1)C1CC(C(F)(F)F)C1 (single isomer, unassigned) [Example 43A, (2R)-N-((R or S)-(3-chloro-4-fluorophenyl)-(trans-3-(trifluoro-methyl)-cyclobutyl)-methyl)-2-methyl-3-oxopiperazine-1-carboxamide]",39.6 nM
17,"C[C@@H]1C(=O)NCCN1C(=O)NC(c1ccc(C(F)(F)F)nc1)C1CC(C)(C)C1 (single isomer, unassigned) [Example 33B, (2R)-N-((S or R)-(3,3-dimethylcyclobutyl)(6-(trifluoromethyl)pyridin-3-yl)methyl)-2-methyl-3-oxopiperazine-1-carboxamide]",3590 nM
18,"C[C@@H]1C(=O)NCCN1C(=O)NC(c1ccc(OC(F)(F)F)c(Cl)c1)C1CC(C(F)(F)F)C1 (single isomer, unassigned) [Example 54B, (2R)-N-((S or R)-(3-chloro-4-(trifluoro-methoxy)phenyl)(3-(trifluoromethyl)cyclo-butyl)methyl)-2-methyl-3-oxopiperazine-1-carboxamide]",4.18 nM
19,"C[C@@H]1C(=O)NCCN1C(=O)NC(c1ccc(F)c(Cl)c1)C1CC(OCC(F)(F)F)C1 (single isomer, unassigned) [Example 44B, (2R)—N—((S or R)-(3-chloro-4-fluorophenyl)(cis-3-(2,2,2-trifluoroethoxy)cyclobutyl)methyl)-2-methyl-3-oxopiperazine-1-carboxamide]",335 nM
20,"C[C@@H]1C(=O)NCCN1C(=O)NC(c1ccc(F)c(Cl)c1F)C1CCC(C(F)(F)F)C1 (single isomer, unassigned) [Example 58D, (2R)—N—((R or S)-(3-chloro-2,4-difluorophenyl)(trans-3-(trifluoromethyl)cyclopentyl)methyl)-2-methyl-3-oxopiperazine-1-carboxamide]",6.03 nM
21,"O=C1CN(C(=O)NC(c2ccc(F)c(Cl)c2)C2CC3CCC(C2)C3(F)F)CCN1 (single isomer, unassigned) [Example 2A, N-((R or S)-(3-chloro-4-fluoro-phenyl)(8,8-difluoro-bicyclo[3.2.1]octan-3-yl)methyl)-3-oxopiperazine-1-carboxamide]",65.5 nM
22,"O=C1CN(C(=O)N[C@H](c2ccc(F)c(Cl)c2)C2CCC(C(F)(F)F)CC2)CCN1 (single isomer, unassigned) [Example 1A]",3.5 nM
23,"COC1CC(C(NC(=O)N2CCNC(=O)[C@H]2C)c2ccc(F)c(Cl)c2F)C1 (single isomer, unassigned) [Example 40A, (2R)-N-((R or S)-(3-chloro-2,4-difluoro-phenyl)(trans-3-methoxy-cyclobutyl)methyl)-2-methyl-3-oxopiperazine-1-carboxamide]",11700 nM
24,"O=C1CN(C(=O)NC(c2ccc(F)c(Cl)c2F)[C@H]2CC[C@H](C(F)(F)F)CC2)CCN1 (single isomer, unassigned) [Example 10B, N-((S or R)-(3-chloro-2,4-di-fluorophenyl)(trans-4-(trifluoromethyl)-cyclohexyl)methyl)-3-oxopiperazine-1-carboxamide]",3.87 nM
25,"O=C1CN(C(=O)NC(c2ccc(F)c(C(F)(F)F)c2)[C@H]2C[C@H](C(F)(F)F)C2)CCN1 (single isomer, unassigned) [Example 52B, N-((S or R)-(4-fluoro-3-(trifluoromethyl)phenyl) (trans-3-(trifluoro-methyl)cyclobutyl)-methyl)-3-oxo-piperazine-1-carboxamide]",11.8 nM
26,"C[C@@H]1C(=O)NCCN1C(=O)NC(c1ccc(F)c(Cl)c1)C1CC(OCC(F)(F)F)C1 (single isomer, unassigned) [Example 44A, (2R)—N—((R or S)-(3-chloro-4-fluorophenyl)(cis-3-(2,2,2-trifluoroethoxy)cyclobutyl)methyl)-2-methyl-3-oxopiperazine-1-carboxamide]",90.5 nM
